From patent US6987114B1, “Antiviral pyrimidinedione derivatives and process for the preparation thereof” (Samjin Pharmaceutical Co., Ltd, priority 1999, dated 2006)
≈ marks a conversion by molar mass, not a printed value. Where two headings read alike, the source gives them in different places.

How the values were obtained:
HIV = assay: microbe, parasite or virus in culture; format: cell-based
In short: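 MT-4 cells (2.5×10^5 cells/ml) infected with 1000 CCID50 HIV, added at once to compound dilutions, incubated 4 or 5 days at 37° C. Protection from virus-induced cytopathic effect read by MTT; cytotoxicity from MTT viability of mock-infected cells in parallel.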

mock-infected MT-4 cells = assay: Cytotoxicity based on viability of mock-infected host cells (MTT method); format: cell-based; details: mock-infected MT-4 cells, MTT method, 4 or 5 days at 37° C.
In short: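 Mock-infected MT-4 cells at 2.5×10^5 cells/ml were exposed to various concentrations of test compound, run in parallel with HIV-infected (1000 CCID50) cultures. After 4 or 5 days at 37° C., host-cell viability was read by MTT.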

[1] = Human immunodeficiency virus 1, MT4, HIV-infected MT-4 cells, MTT method, 4 or 5 days at 37° C., read-out: ED50 (the source's name)
[2] = Human immunodeficiency virus 1, MT4, read-out: ED50

Cc1cc(C)cc(Oc2c(C(C)C)c(=O)[nH]c(=O)n2Cc2ccccn2)c1 [Example 112, 1-(Pyridin-2-ylmethyl)-5-isopropyl-6-(3,5-dimethylphenoxy)-2,4-pyrimidinedione]
EC50 (HIV; [1]): 0.029 µg/mL (≈ 0.0794 µM)
CD50 (mock-infected MT-4 cells): >100.00 µg/mL
melting point: 220 to 223 °C

CCc1c(C(=O)c2cc(C)cc(C)c2)n(Cc2ccccn2)c(=O)[nH]c1=O [Example 113, 1-(Pyridin-2-ylmethyl)-5-ethyl-6-(3,5-dimethylbenzoyl)-2,4-pyrimidinedione]
EC50 (HIV; [1]): 0.0084 µg/mL (≈ 0.0231 µM)
CD50 (mock-infected MT-4 cells): 32.80 µg/mL
melting point: 153 to 155 °C

CCc1c(Sc2cc(C)cc(C)c2)n(Cc2cccnc2)c(=O)[nH]c1=O [Example 115, 1-(Pyridin-3-ylmethyl)-5-ethyl-6-(3,5-dimethylphenyl)thio-2,4-pyrimidinedione]
EC50 (HIV; [2]): 0.014 µg/mL (≈ 0.0381 µM)
CD50 (mock-infected MT-4 cells): 16.63 µg/mL
melting point: 202 to 205 °C

Cc1cc(C)cc(Sc2c(C(C)C)c(=O)[nH]c(=O)n2Cc2cccnc2)c1 [Example 116, 1-(Pyridin-3-ylmethyl)-5-isopropyl-6-(3,5-dimethylphenyl)thio-2,4-pyrimidinedione]
EC50 (HIV; [2]): 0.003 µg/mL (≈ 0.00786 µM)
CD50 (mock-infected MT-4 cells): 10.09 µg/mL
melting point: 159 to 161 °C

CCc1c(Oc2cc(C)cc(C)c2)n(Cc2cccnc2)c(=O)[nH]c1=O [Example 117, 1-(Pyridin-3-ylmethyl)-5-ethyl-6-(3,5-dimethylphenoxy)-2,4-pyrimidinedione]
EC50 (HIV; [2]): 0.061 µg/mL (≈ 0.174 µM)
CD50 (mock-infected MT-4 cells): 40.20 µg/mL
melting point: 230 to 232 °C

Cc1cc(C)cc(Oc2c(C(C)C)c(=O)[nH]c(=O)n2Cc2cccnc2)c1 [Example 118, 1-(Pyridin-3-ylmethyl)-5-isopropyl-6-(3,5-dimethylphenoxy)-2,4-pyrimidinedione]
EC50 (HIV; [2]): 0.015 µg/mL (≈ 0.041 µM)
CD50 (mock-infected MT-4 cells): 33.50 µg/mL
melting point: 190 to 193 °C

CCc1c(C(=O)c2cc(C)cc(C)c2)n(Cc2cccnc2)c(=O)[nH]c1=O [Example 119, 1-(Pyridin-3-ylmethyl)-5-ethyl-6-(3,5-dimethylbenzoyl)-2,4-pyrimidinedione]
EC50 (HIV; [2]): 0.0038 µg/mL (≈ 0.0105 µM)
CD50 (mock-infected MT-4 cells): 39.00 µg/mL
melting point: 170 to 172 °C

Cc1cc(C)cc(C(=O)c2c(C(C)C)c(=O)[nH]c(=O)n2Cc2cccnc2)c1 [Example 120, 1-(Pyridin-3-ylmethyl)-5-isopropyl-6-(3,5-dimethylbenzoyl)-2,4-pyrimidinedione]
EC50 (HIV; [2]): 0.002 µg/mL (≈ 0.0053 µM)
CD50 (mock-infected MT-4 cells): 8.80 µg/mL
melting point: 178 to 180 °C

CCc1c(Sc2cc(C)cc(C)c2)n(Cc2cccc(Cl)n2)c(=O)[nH]c1=O [Example 121, 1-(2-Chloropyridin-6-ylmethyl)-5-ethyl-6-(3,5-dimethyl-phenyl)thio-2,4-pyrimidinedione]
EC50 (HIV; [1]): > 7.72 µg/mL
CD50 (mock-infected MT-4 cells): 7.72 µg/mL
melting point: 145 to 148 °C

Cc1cc(C)cc(Sc2c(C(C)C)c(=O)[nH]c(=O)n2Cc2cccc(Cl)n2)c1 [Example 122, 1-(2-Chloropyridin-6-ylmethyl)-5-isopropyl-6-(3,5-dimethylphenyl)thio-2,4-pyrimidinedione]
EC50 (HIV; [1]): > 2.8 µg/mL
CD50 (mock-infected MT-4 cells): 2.80 µg/mL
melting point: 159 to 161 °C

CCc1c(Oc2cc(C)cc(C)c2)n(Cc2cccc(Cl)n2)c(=O)[nH]c1=O [Example 123, 1-(2-Chloropyridin-6-ylmethyl)-5-ethyl-6-(3,5-dimethylphenoxy)-2,4-pyrimidinedione]
EC50 (HIV; [1]): 0.122 µg/mL (≈ 0.316 µM)
CD50 (mock-infected MT-4 cells): 79.14 µg/mL
melting point: 199 to 201 °C

Cc1cc(C)cc(Oc2c(C(C)C)c(=O)[nH]c(=O)n2Cc2cccc(Cl)n2)c1 [Example 124, 1-(2-Chloropyridin-6-ylmethyl)-5-isopropyl-6-(3,5-dimethylphenoxy)-2,4-pyrimidinedione]
EC50 (HIV; [1]): 0.082 µg/mL (≈ 0.205 µM)
CD50 (mock-infected MT-4 cells): >100.00 µg/mL
melting point: 223 to 225 °C

CCc1c(C(=O)c2cc(C)cc(C)c2)n(Cc2cccc(Cl)n2)c(=O)[nH]c1=O [Example 125, 1-(2-Chloropyridin-6-ylmethyl)-5-ethyl-6-(3,5-dimethyl-benzoyl)-2,4-pyrimidinedione]
EC50 (HIV; [1]): 0.015 µg/mL (≈ 0.0377 µM)
CD50 (mock-infected MT-4 cells): 9.02 µg/mL
melting point: 196 to 198 °C

Cc1cc(C)cc(C(=O)c2c(C(C)C)c(=O)[nH]c(=O)n2Cc2cccc(Cl)n2)c1 [Example 126, 1-(2-Chloropyridin-6-ylmethyl)-5-isopropyl-6-(3,5-dimethylbenzoyl)-2,4-pyrimidinedione]
EC50 (HIV; [1]): 0.011 µg/mL (≈ 0.0267 µM)
CD50 (mock-infected MT-4 cells): 9.85 µg/mL
melting point: 206 to 208 °C

CCc1c(Oc2cc(C)cc(C)c2)n(Cc2cccc(Br)n2)c(=O)[nH]c1=O [Example 127, 1-(2-Bromopyridin-6-ylmethyl)-5-ethyl-6-(3,5-dimethylphenoxy)-2,4-pyrimidinedione]
EC50 (HIV; [1]): 0.194 µg/mL (≈ 0.451 µM)
CD50 (mock-infected MT-4 cells): 9.46 µg/mL
melting point: 201 to 203 °C

Cc1cc(C)cc(Oc2c(C(C)C)c(=O)[nH]c(=O)n2Cc2cccc(Br)n2)c1 [Example 128, 1-(2-Bromopyridin-6-ylmethyl)-5-isopropyl-6-(3,5-dimethylphenoxy)-2,4-pyrimidinedione]
EC50 (HIV; [1]): 0.079 µg/mL (≈ 0.178 µM)
CD50 (mock-infected MT-4 cells): 48.27 µg/mL
melting point: 228 to 230 °C

Cc1cc(C)cc(C(=O)c2c(C(C)C)c(=O)[nH]c(=O)n2Cc2cccc(Br)n2)c1 [Example 130, 1-(2-Bromopyridin-6-ylmethyl)-5-isopropyl-6-(3,5-dimethyl-benzoyl)-2,4-pyrimidinedione]
EC50 (HIV; [1]): 0.015 µg/mL (≈ 0.0329 µM)
CD50 (mock-infected MT-4 cells): 8.85 µg/mL
melting point: 218 to 220 °C

CCc1c(Sc2cc(C)cc(C)c2)n(Cc2ccc3ccccc3n2)c(=O)[nH]c1=O [Example 131, 1-(Quinolin-2-ylmethyl)-5-ethyl-6-(3,5-dimethylphenyl)-thio-2,4-pyrimidinedione]
EC50 (HIV; [1]): > 10.6 µg/mL
CD50 (mock-infected MT-4 cells): 10.60 µg/mL
melting point: 107 to 110 °C

Cc1cc(C)cc(Sc2c(C(C)C)c(=O)[nH]c(=O)n2Cc2ccc3ccccc3n2)c1 [Example 132, 1-(Quinolin-2-ylmethyl)-5-isopropyl-6-(3,5-dimethylphenyl)thio-2,4-pyrimidinedione]
EC50 (HIV; [1]): > 9.58 µg/mL
CD50 (mock-infected MT-4 cells): 9.60 µg/mL
melting point: 181 to 183 °C

CCc1c(Oc2cc(C)cc(C)c2)n(Cc2ccc3ccccc3n2)c(=O)[nH]c1=O [Example 133, 1-(Quinolin-2-ylmethyl)-5-ethyl-6-(3,5-dimethyl-phenoxy)-2,4-pyrimidinedione]
EC50 (HIV; [1]): 0.06 µg/mL (≈ 0.149 µM)
CD50 (mock-infected MT-4 cells): 11.70 µg/mL
melting point: 220 to 222 °C

Cc1cc(C)cc(Oc2c(C(C)C)c(=O)[nH]c(=O)n2Cc2ccc3ccccc3n2)c1 [Example 134, 1-(Quinolin-2-ylmethyl)-5-isopropyl-6-(3,5-dimethyl-phenoxy)-2,4-pyrimidinedione]
EC50 (HIV; [1]): 0.004 µg/mL (≈ 0.00963 µM)
CD50 (mock-infected MT-4 cells): 66.80 µg/mL
melting point: 246 to 248 °C

CCc1c(C(=O)c2cc(C)cc(C)c2)n(Cc2ccc3ccccc3n2)c(=O)[nH]c1=O [Example 135, 1-(Quinolin-2-ylmethyl)-5-ethyl-6-(3,5-dimethylbenzoyl)-2,4-pyrimidinedione]
EC50 (HIV; [1]): 0.0089 µg/mL (≈ 0.0215 µM)
CD50 (mock-infected MT-4 cells): 6.80 µg/mL
melting point: 218 to 220 °C

Cc1cc(C)cc(C(=O)c2c(C(C)C)c(=O)[nH]c(=O)n2Cc2ccc3ccccc3n2)c1 [Example 136, 1-(Quinolin-2-ylmethyl)-5-isopropyl-6-(3,5-dimethyl-benzoyl)-2,4-pyrimidinedione]
EC50 (HIV; [1]): 0.0097 µg/mL (≈ 0.0227 µM)
CD50 (mock-infected MT-4 cells): 8.70 µg/mL
melting point: 152 to 154 °C

CCc1c(Oc2cc(C)cc(C)c2)n(Cn2nnc3ccccc32)c(=O)[nH]c1=O [Example 141, 1-(1H-benzotriazol-1-ylmethyl)-5-ethyl-6-(3,5-dimethylphenoxy)-2,4-pyrimidinedione]
EC50 (HIV; [1]): 0.11 µg/mL (≈ 0.281 µM)
CD50 (mock-infected MT-4 cells): 27.60 µg/mL
melting point: 248 to 249 °C

Cc1cc(C)cc(Oc2c(C(C)C)c(=O)[nH]c(=O)n2Cn2nnc3ccccc32)c1 [Example 142, 1-(1H-benzotriazol-1-ylmethyl)-5-isopropyl-6-(3,5-dimethylphenoxy)-2,4-pyrimidinedione]
EC50 (HIV; [1]): 0.044 µg/mL (≈ 0.109 µM)
CD50 (mock-infected MT-4 cells): >100.00 µg/mL
melting point: 278 to 279 °C

CCc1c(C(=O)c2cc(C)cc(C)c2)n(Cn2nnc3ccccc32)c(=O)[nH]c1=O [Example 143, 1-(1H-benzotriazol-1-ylmethyl)-5-ethyl-6-(3,5-dimethylbenzoyl)-2,4-pyrimidinedione]
EC50 (HIV; [1]): 0.026 µg/mL (≈ 0.0644 µM)
CD50 (mock-infected MT-4 cells): 9.76 µg/mL
melting point: 226 to 229 °C

Cc1cc(C)cc(C(=O)c2c(C(C)C)c(=O)[nH]c(=O)n2Cn2nnc3ccccc32)c1 [Example 144, 1-(1H-benzotriazol-1-ylmethyl)-5-isopropyl-6-(3,5-dimethyl-benzoyl)-2,4-pyrimidinedione]
EC50 (HIV; [1]): 0.03 µg/mL (≈ 0.0719 µM)
CD50 (mock-infected MT-4 cells): 8.89 µg/mL
melting point: 246 to 247 °C

CCc1c(Sc2cc(C)cc(C)c2)n(Cc2nc3ccccc3o2)c(=O)[nH]c1=O [Example 145, 1-(Benzoxazol-2-ylmethyl)-5-ethyl-6-(3,5-dimethylphenyl)thio-2,4-pyrimidinedione]
EC50 (HIV; [2]): 3.04 µg/mL (≈ 7.46 µM)
CD50 (mock-infected MT-4 cells): >100.00 µg/mL
melting point: 104 to 106 °C

Cc1cc(C)cc(Sc2c(C(C)C)c(=O)[nH]c(=O)n2Cc2nc3ccccc3o2)c1 [Example 146, 1-(Benzoxazol-2-ylmethyl)-5-isopropyl-6-(3,5-dimethylphenyl)thio-2,4-pyrimidinedione]
EC50 (HIV; [2]): 1.02 µg/mL (≈ 2.42 µM)
CD50 (mock-infected MT-4 cells): >100.00 µg/mL
melting point: 107 to 109 °C
